The results in this text go back to paper PMC9396645 (Frontiers in Chemistry, 2022).

Molecules are shown by their SMILES.

A short description of data set [1]: Serum stability (radio-HPLC and radio-ITLC). It is filed as in vitro ADME. The settings on record: ^177Lu-labeled, 37°C. The protocol: After radiolabeling of the compounds, serum stability was examined by HPLC and ITLC (instant thin-layer chromatography). 50 µL (20 MBq) of the ^177Lu-labeled ligands was added to 200 µL human serum (Sigma-Aldrich) and incubated at 37°C. At different time points (0, 2, 24, 48, and 72 h) 0.5 µL was applied onto iTLC-SG-glass microfiber chromatography paper strips (5 × 0.5 cm; Agilent Technologies) at a distance of 1 cm from the bottom. The strip was placed upright into a vial containing 120 µL of sodium citrate buffer (0.5 M, pH = 5.0). The buffer front was allowed to rise to the top. Subsequently, each strip was cut in eight equally sized pieces that were subsequently measured in a gamma-counter. For HPLC analysis, an equal volume of ACN was added to the samples; under these conditions, the serum proteins precipitated. The samples were centrifuged for 10 min at 12,000 × g. Following the separation of the pellet and the supernatant, their relative activity (%) was determined. An aliquot of the supernatant was analyzed by radio-HPLC (0–100% ACN in 5 min, Monolith column, Merck), with a flow rate of 2 mL/min.

A further data set relates to C4-2 tumor-bearing mice. The data set is described as follows: In vivo metabolite analysis by radio-HPLC of tissue extracts. The settings on record: extracts from kidney, blood, liver and tumor of C4-2 tumor-bearing mice, 10 MBq, 0.2 nmol i.v. More on the design: species or system mouse. The protocol: The metabolization of the radiolabeled tracers in vivo was studied by radio-HPLC analysis. Male nude C4-2 tumor-bearing mice (n = 3) were injected with ^177Lu-CA028 or ^177Lu-PSMA-617 (10 MBq, 0.2 nmol in approximately 100 µL of 0.9% saline) via the tail vein. Ten min post injection, blood, the liver, and the kidneys were dissected. The tissues were rinsed with ice-cold saline, blotted dry, treated with 2 mL of 0.1 M NH4OAc/EtOH (35:65), and homogenized with an Ultra-Turrax T8 (IKA Labortechnik). The samples were then centrifuged for 10 min at 12,000 × g and 4°C. For HPLC measurements, an aliquot of the supernatants was prepared by precipitation of the proteins with ACN as described above for serum stability testing. The samples were analyzed by radio-HPLC (0–100% ACN in 5 min, 2 mL/min, Monolith column, Merck). The fractions were collected every 10 s over the whole course of the chromatographic run. Subsequently, the activity of the samples was measured in a gamma-counter to reconstruct a chromatogram.

Another data set deals with T1, PSMA (Homo sapiens, UniProt Q04609).
T1 construct: host or cells: C4-2 cells (subline of LNCaP)
T1 sequence (Q04609 whole entry): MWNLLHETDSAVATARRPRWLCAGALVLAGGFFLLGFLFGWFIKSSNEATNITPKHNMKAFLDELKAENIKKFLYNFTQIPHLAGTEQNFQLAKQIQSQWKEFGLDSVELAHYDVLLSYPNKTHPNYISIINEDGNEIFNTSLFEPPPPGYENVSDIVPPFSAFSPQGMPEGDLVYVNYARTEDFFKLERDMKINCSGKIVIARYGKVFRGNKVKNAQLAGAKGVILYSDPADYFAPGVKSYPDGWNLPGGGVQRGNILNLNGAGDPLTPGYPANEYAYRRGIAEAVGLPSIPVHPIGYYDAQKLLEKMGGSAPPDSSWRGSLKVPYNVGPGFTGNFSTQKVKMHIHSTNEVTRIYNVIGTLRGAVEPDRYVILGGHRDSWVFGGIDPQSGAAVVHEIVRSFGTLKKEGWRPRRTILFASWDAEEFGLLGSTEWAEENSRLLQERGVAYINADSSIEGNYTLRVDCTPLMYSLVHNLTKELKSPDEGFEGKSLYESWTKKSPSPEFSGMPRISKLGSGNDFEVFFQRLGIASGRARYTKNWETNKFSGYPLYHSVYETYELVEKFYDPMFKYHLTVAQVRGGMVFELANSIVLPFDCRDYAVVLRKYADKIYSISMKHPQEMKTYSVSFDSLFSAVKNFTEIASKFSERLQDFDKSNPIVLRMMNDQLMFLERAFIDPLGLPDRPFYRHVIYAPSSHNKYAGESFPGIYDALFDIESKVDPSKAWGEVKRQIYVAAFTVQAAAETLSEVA
The data set is described as follows: Competitive cell binding assay on C4-2 cells vs ^68Ga-PSMA-10. Conditions: non-labeled compounds, radioligand ^68Ga-PSMA-10 0.75 nM, 37°C 45 min, mean ± SD (n = 3). The protocol:
The competition binding assay was performed using the cell line C4-2 (ATCC® CRL-3314™; American Type Culture Collection). This is a subline of the PSMA-positive cell line LNCaP. The cells were cultivated in RPMI 1640 medium (PAN-Biotech), supplemented with 10% fetal bovine serum and 2 mM L-glutamine (PAN-Biotech) at 37°C and 5% CO2 in a humidified atmosphere.
A 96-well MultiScreenHTS-DV filter plate (Merck Millipore) was incubated at room temperature with 100 µL of a 1% bovine serum albumin (BSA) solution in PBS (phosphate-buffered saline) per well for 30 min. After removal of PBS/BSA solution, 1 × 10^5 C4-2 cells in 50 µL of Opti-MEM medium (Gibco, Life Technologies) were seeded into each well. […] All non-labeled compounds were dissolved in Opti-MEM and added as competing ligands at several concentrations: 0, 0.5, 1, 2.5, 5, 10, 25, 50, 100, 500, 1,000, and 5,000 nM. After incubation at 37°C for 45 min, the cells were washed twice with PBS at 4°C. The radioactivity in the supernatant and that accumulated by the cells was determined with a γ-counter (Packard Cobra Auto-gamma). Using Graph Pad Prism 5.01 software, a nonlinear regression algorithm was calculated to obtain the 50% inhibitory concentration (IC50). These experiments were performed in quadruplicate.

For a further data set, the system named is C4-2 cells. The data set can be described thus: Internalization efficiency / specific cell uptake in C4-2 cells. It counts as cell-based, human. Conditions: for Specific cell surface / Specific lysate (internalization): ^68Ga-labeled compounds 30 nM, 45 min, 37°C, specificity by 2-PMPA 500 μM, mean ± SD (n = 3). The protocol: The specific internalization ratio was determinated in 24-well plates. The plates were previously coated with 0.1% poly-L-lysine in PBS for 20 min and washed with PBS once. C4-2 cells (10^5 cells per analysis) were added to each well and equilibrated overnight. The cells were incubated for 45 min with 250 µL of a 30 nM solution of the ^68Ga-labeled compounds either in a water bath at 37°C or on ice. The PSMA-receptor-blocking agent 2-(phosphonomethyl)pentanedioic acid (2-PMPA; 500 μM; Axxora) was used to verify the specificity of the cellular uptake of the novel compounds. The cells were washed thrice (using 1 ml of ice-cold PBS), followed by an incubation with 0.5 ml of a glycine solution (50 mM in HCl at a pH of 2.8) for 5 min, washed once with 1 ml of ice-cold PBS, and finally lysed with 0.5 ml of 0.3 M NaOH. The lysate was collected, and the radioactivity was measured in a gamma-counter. Triplicate measurements were performed for all experiments.

A short description of data set [2]: Determination of plasma half-life in athymic nude mice. Conditions: athymic nude mice (n = 3), i.v. 4–6 MBq, biexponential fit, weighted overall half-life. It counts as in vivo, mouse. The protocol: The radioligands ^68Ga-CA027 and ^68Ga-CA028 (4–6 MBq) were injected into athymic nude mice (n = 3) via the lateral tail vein. Blood (25–50 μL) was collected 2, 5, 15, 30, 45, 60, 90, and 120 min post injection via either the tail or saphenous vein, and the activity of the blood samples was determined in a γ-counter. Both procedures furnished consistent and reproducible results. The percentage of the injected dose per gram of tissue (%ID/g) was calculated, and the resulting values were plotted as a function of time. A biexponential decay curve was used as a fit function, accounting for a short blood half-life (a-phase) during the initial phase directly after injection and a longer blood half-life during the terminal phase (b-phase). The data analysis program Prism 7™ was used to determine both half-lives, t1/2-a and t1/2-b, as well as their relative contribution (in %) to the overall half-life (t1/2). Subsequently, both half-lives were weighed according to their relative contribution to the overall blood half-life t1/2. At the time of tracer injection (t = 0), it was assumed that %ID/g = 50. The injected dose at t = 0 equals 100%, divided by the total mass of blood (approximately 2 g in the case of 6‒8 weeks old mice) gives %ID/g t=0 = 50.

Take `O=C([O-])CN1CCN(CC(=O)[O-])CCN(Cc2ccc(C(=O)NCC3CCC(C(=O)NC(Cc4ccc5ccccc5c4)C(=O)NCCCCC(NC(=O)NC(CCC(=O)O)C(=O)O)C(=O)O)CC3)cc2)CCN(CC(=O)[O-])CC1.[177Lu+3]` (stereo not drawn) [^177Lu-CA028]: in data set [1] ('at this time point'), the “free activity in human serum” value is 40%. In the data set on C4-2 tumor-bearing mice, the “metabolization in vivo (radio-HPLC of extracts)” value is “activity elutes at the retention time of the intact tracer”.

Usually Ki stands for the dissociation constant of the complex between target and ligand, obtained from inhibition or displacement. Low values mean tighter binding, high ones weaker binding. `O=C(O)CCC(NC(=O)NC(CCCCNC(=O)c1ccc(CN2CCN(CC(=O)O)CCN(CC(=O)O)CCN(CC(=O)O)CC2)cc1)C(=O)O)C(=O)O` (stereo not drawn) [CA027] came in with an inhibition constant Ki at PSMA of 33.8 ± 2.13 nM. Moreover, in the data set on C4-2 cells, the Specific cell surface stood at 2.18 ± 0.50 %IA/10^6cells and the “Specific lysate (internalization)” value stood at 1.70 ± 0.24 %IA/10^6 cells.

The molecule `O=C(O)CCC(NC(=O)NC(CCCCNC(=O)C(Cc1ccc2ccccc2c1)NC(=O)C1CCC(CNC(=O)c2ccc(CN3CCN(CC(=O)O)CCN(CC(=O)O)CCN(CC(=O)O)CC3)cc2)CC1)C(=O)O)C(=O)O` (stereo not drawn) [CA028] yielded an inhibition constant Ki on PSMA of 15.2 ± 6.11 nM. In addition, in the data set with C4-2 cells, the Specific cell surface came to 94.12 ± 2.70 %IA/10^6cells and the “Specific lysate (internalization)” value was 41.22 ± 2.72 %IA/10^6 cells.

`O=C(O)CCC(NC(=O)NC(CCCCNC(=O)C(Cc1ccc2ccccc2c1)NC(=O)C1CCC(CNC(=S)Nc2ccc(CC3CN(CC(=O)O)CCN(CC(=O)O)CCN(CC(=O)O)CCN3CC(=O)O)cc2)CC1)C(=O)O)C(=O)O` (stereo not drawn) [CA030] had a Ki at PSMA of 4.79 ± 1.31 nM. The “specific internalization in C4-2 cells” value in the data set with C4-2 cells (Table 2) worked out at 53.78 % ID/10^6 cells. Also, in the data set with C4-2 cells, the Specific cell surface amounted to 43.46 ± 1.50 %IA/10^6cells and the “Specific lysate (internalization)” value amounted to 53.78 ± 5.45 %IA/10^6 cells.

As to `O=C([O-])CN1CCN(CC(=O)[O-])CCN(Cc2ccc(C(=O)NCCCCC(NC(=O)NC(CCC(=O)O)C(=O)O)C(=O)O)cc2)CCN(CC(=O)[O-])CC1.[68Ga+3]` (stereo not drawn) [^68Ga-CA027], the “plasma half-life t1/2” value in data set [2] stood at 2.7 min.

Consider `O=C(O)CCC(NC(=O)NC(CCCCNC(=O)C(Cc1ccc2ccccc2c1)NC(=O)C1CCC(CNC(=S)Nc2ccc(CNC(=O)CCC(C(=O)O)N3CCN(CC(=O)O)CCN(CC(=O)O)CCN(CC(=O)O)CC3)cc2)CC1)C(=O)O)C(=O)O` (stereo not drawn) [CA029], for which, on PSMA, the Ki amounted to 11 ± 4.87 nM. In the data set with C4-2 cells, the Specific cell surface is 46.83 ± 3.07 %IA/10^6cells and the “Specific lysate (internalization)” value was 44.26 ± 3.96 %IA/10^6 cells.

`O=C([O-])CN1CCN(CC(=O)[O-])CCN(CC(=O)NCC2CCC(C(=O)N[C@@H](Cc3ccc4ccccc4c3)C(=O)NCCCC[C@H](NC(=O)N[C@@H](CCC(=O)O)C(=O)O)C(=O)O)CC2)CCN(CC(=O)[O-])CC1.[177Lu+3]` (stereo partly drawn) [^177Lu-PSMA-617, reference compound]: the “release of ^177Lu in human serum” value in data set [1] (radio-ITLC) is listed as “no release”. The “metabolization in vivo (radio-HPLC of extracts)” value in the data set with C4-2 tumor-bearing mice is “activity elutes at the retention time of the intact tracer”.
